Literature values as cited in US7947467B2, “Methods for monitoring pathological conditions in a subject” (Common Sense Ltd., priority 2001, dated 2011).

Tests used:
[1] = in aqueous solution

Compound	aqueous pH transition range	pKa [1]
O=C1c2ccccc2C(=O)c2c1ccc(O)c2O [Alizarin]	5.5-6.8	–
Cc1cc(C2(c3cc(C)c(O)c(Br)c3)OS(=O)(=O)c3ccccc32)cc(Br)c1O [Bromcresol Purple]	5.2-6.8	–
Cc1cc(C2(c3cc(C)c(O)c(Br)c3C)OS(=O)(=O)c3ccccc32)c(C)c(Br)c1O [Bromoxylenol Blue]	6.0-7.6	–
Cc1c(C2(c3cc(C(C)C)c(O)c(Br)c3C)OS(=O)(=O)c3ccccc32)cc(C(C)C)c(O)c1Br [Bromthymol Blue]	6.0-7.6	–
O=S1(=O)OC(c2ccc(O)c(Cl)c2)(c2ccc(O)c(Cl)c2)c2ccccc21 [Chlorophenol Red]	5.2-8.8	–
Cc1cc(C2(c3ccc(O)c(C)c3)OS(=O)(=O)c3ccccc32)ccc1O [Cresol Red]	7.2-8.8	–
Cc1cc2nc3ccc(N(C)C)cc3nc2cc1N.Cl [Neutral Red]	6.8-8.0	–
Cc1cc(O)c(C(C)C)cc1C1(c2cc(C(C)C)c(O)cc2C)OS(=O)(=O)c2ccccc21 [Thymol Blue]	8.0-9.2	–
Cc1cc(C2(c3cc(C)c(O)cc3C)OS(=O)(=O)c3ccccc32)c(C)cc1O [Xylenol Blue]	8.0-9.6	–
Cc1cc(O)ccc1C1(c2ccc(O)cc2C)OS(=O)(=O)c2ccccc21 [m-Cresol purple]	7.4-9.0	–
Nitrazine Yellow	6.0-7.2	6.6
